These results are taken from patent publication US7572798B2, “Combi-molecules having signal transduction inhibitory properties and DNA damaging properties” (McGill University, priority 2001, dated 2009).

Values joined by “and” are separate entries in the source; they are usually repeats but may differ in a detail not shown here. Equal values may be shown once.

The test system of data set [1] is A431 cells. The experiment in a line: SRB growth inhibition assay in A431 cells. In kind it is cell-based. To be noted: Homo sapiens, A-431, 96 h, read-out: IC50 growth inhibition.
For data set [2], the target named is T1, EGFR (Homo sapiens, UniProt P00533). As to the kind of experiment: EGFR TK ELISA with PGT substrate (competitive binding at the ATP site). It counts as biochemical. More on the design: purchased BIOMOL (Plymouth Meeting); also a gift from Pfizer Inc. The protocol:
The ability of the combi-molecules to block EGFR TK activity was determined by an ELISA assay using poly(L-glutamic acid-L-tyrosine, 4:1) PGT as a substrate and commercially available EGFR.
Nunc MaxiSorp 96-well plates were incubated overnight at 37° C. with 100μL per well of 0.25 mg/mL PGT in PBS. Excess PGT was removed and the plates were washed 3 times with Tween 20 (0.1%) in PBS. […] The compound was added and phosphorylation initiated by the addition of ATP (20 μM). After 8 min at room temperature with constant shaking, the reaction was terminated by the aspiration of the reaction mixture and by rinsing the plate 4 times with wash buffer (Tween 20 (0.1%) in PBS). […] Antibody was removed by aspiration, and the plates washed 4 times with wash buffer. The signals were developed by the addition of 50 μL per well of TMB peroxidase substrate (Kierkegaard and Perry Laboratories, Gaithersberg, Md.).
This assay is similar to the one previously described. Nunc MaxiSorp 96-well plates were incubated overnight at 37° C. with 100 μl/well of 25 ng/ml PGT in PBS. Excess PGT was removed and the plates were washed three times with wash buffer (Tween 20 (0.1%) in PBS). […] The compound was added and phosphorylation initiated by the addition of ATP (20 μM). After 8 min at room temperature with constant shaking, the reaction was terminated by aspirating the mixture and by rinsing the plates four times with wash buffer Tween 20 (0.1%) in PBS. […] Antibody was removed by aspiration, and the plate washed four times with wash buffer. The signals were developed by the addition of 50 μl/well of 3,3′,5,5′-tetramethylbenzidine (TMB) peroxidase substrate (Kierkegaard and Perry Laboratories, Gaithersberg, Md., USA).

For data set [3], the target named is T1, EGFR. The experiment in a line: Reverse EGFR autophosphorylation (reversibility) assay in A431 cells. To be noted: A431, 30 μM, 90 min. In kind it is cell-based. As to the method:
To test this hypothesis, the reversibility assay (40, 41) was used, according to which the cells are treated with the drug for 90 min after which the culture medium is repeatedly removed and replaced 3 times, followed by the measurement of EGFR autophosphorylation.
A431 cells were grown to confluence in 6-well plates and then incubated in serum-free medium for 18 h (41). Duplicate sets of cells were then treated with 30 μM of each compound for 90 min. One set of cells was then stimulated with EGF (100 ng/ml) for 10 min and extracts were made as described under the Western blotting procedure above. The other set of cells was washed free of each compound with warmed serum-free media and incubated for 2 h. Thereafter, the cells were washed, incubated for another 2 h, washed again, and then incubated for a further 4 h. This set of cells was then stimulated with EGF and extracts were prepared as for the first set.

For data set [4], the system named is A431 cells. The experiment in a line: Alkaline comet assay for DNA damage in A431 cells. To be noted: for DNA damage (comet tail moment): A431, 30 min or 2 h exposure.
Protocol: A431 cells were exposed to drugs for 30 min or 2 h, and harvested with trypsin-EDTA. The cells were subsequently collected by centrifugation and re-suspended in PBS. The resulting cell suspension was diluted to approximately 10^6 cells, and mixed with agarose (1%) in PBS at 37° C. in a 1:10 dilution. The gels were cast on Gelbond strips (Mandel Scientific, Guelph, Canada) using gel casting chambers, as previously described (32), then immediately placed into a lysis buffer [2.5 M NaCl, 0.1 M tetra-sodium EDTA, 10 mM tris-base, 1% (w/v) N-lauryl sarcosine, 10% (v/v) DMSO and 1% (v/v) Triton X-100]. After being kept on ice for 30 min, the gels were gently rinsed with distilled water and then immersed in a second lysis buffer [2.5 M NaCl, 0.1 M tetra-sodium EDTA, 10 mM tris-base], containing 1 mg/ml proteinase K for 60 min at 37° C. Thereafter, the gels were rinsed with distilled water, incubated in alkaline electrophoresis buffer for 30 min at 37° C., and electrophoresed at 300 mA for 60 min. The gels were subsequently rinsed with distilled water and placed into 1 M ammonium acetate for 30 min. They were further soaked in 100% ethanol for 2 h, dried overnight and subsequently stained with SYBR Gold ( 1/10000 dilution of stock supplied from Molecular Probes, OR) for 20 min. For evaluation of comets, DNA damage was assessed using the Tail Moment parameter (i.e. the product of the distance between the barycentres of the head and the tail of the comet. A minimum of 50 cell comets were analyzed for each sample using ALKOMET v3.1 software, and values are an average of tail moments for the entire cell population.
Cell suspensions were diluted to approximately 10^6 cells, and mixed with agarose (1%) in PBS at 37° C. in a 1:10 dilution. The gels were cast on Gelbond strips (Mandel Scientific, Guelph, Canada) using gel casting chambers, as previously described (31), and then immediately placed in a lysis buffer [2.5 M NaCl, 0.1 M tetra-sodium EDTA, 10 mM Tris-base, 1% (w/v) N-lauryl sarcosine, 10% (v/v) DMSO, and 1% (v/v) Triton X-100, pH 10.0]. After being kept on ice for 30 min, the gels were gently rinsed with distilled water and immersed in a second lysis buffer (2.5 M NaCl, 0.1 M tetrasodium EDTA, 10 mM Tris-base) containing 1 mg/ml proteinase K for 60 min at 37° C. Thereafter, the gels were rinsed with distilled water, incubated in alkaline electrophoresis buffer for 30 min at 37° C., and electrophoresed at 300 mA for 60 min. The gels were subsequently rinsed with distilled water and placed in 1 M ammonium acetate for 30 min. They were soaked in 100% ethanol for 2 h, dried overnight, and subsequently stained with SYBR Gold ( 1/10000 dilution of stock supplied from Molecular Probes, Eugene, Oreg.) for 20 min. Comets were visualized at 330× magnification and DNA damage was quantitated using the Tail Moment parameter (i.e., the distance between the barycenter of the head and the tail of the comet multiplied by the percentage of DNA within the tail of the comet). A minimum of 50 cell comets were analyzed for each sample, using ALKOMET version 3.1 image analysis software, and values are averages of tail moments for the entire cell population per sample.
Data set [5] addresses T2, human c-src (Homo sapiens, UniProt P12931).
T2 construct: purchased Upstate NY; host or cells: Baculovirus expression
As to the kind of experiment: c-src kinase ELISA. In kind it is biochemical. To be noted: 1-100 μM range. The protocol:
(§1) Conditions for the c-src and insulin kinase assays were similar to those of the EGFR kinase assay, with the exception of the addition of 1 mM manganese chloride to the assay buffer, and a final ATP concentration of 100 μM. The reaction was terminated by the addition of 50 μl of a 250 mM solution of EDTA prior to aspiration.

Data set [6] addresses T3, cytoplasmic domain of the insulin receptor β subunit (Homo sapiens, UniProt P06213).
T3 construct: Baculovirus-expressed cytoplasmic domain of the insulin receptor β subunit; purchased Biomol Research laboratories Inc., USA; host or cells: Baculovirus expression
The experiment in a line: insulin receptor kinase ELISA. Conditions: 1-100 μM range. It counts as biochemical. The protocol:
as §1

Data set [7] deals with NIH3T3HER14 cells. The experiment in a line: Growth factor-stimulated proliferation in NIH3T3HER14 cells (SRB). Conditions: NIH3T3HER14, 72 h. It counts as cell-based, mouse. The protocol: To study the effect of our compounds on growth factors stimulated proliferation, cells were grown to 70% confluence in 48-well plates and washed twice with PBS, after which they were exposed to serum-free medium for 18 h. The cells were then exposed to each drug and growth factors (EGF, TGFα, PDGF or serum) for 72 h and cell growth measured using the sulforhodamine B (SRB) assay (33). Briefly, following drug treatment, cells were fixed using 50 μl of cold trichloroacetic acid (50%) for 60 min at 4° C., washed five times with tap water, and stained for 30 min at room temperature with SRB (0.4%) dissolved in acetic acid (0.5%). The plates were rinsed five times with 1% acetic acid and allowed to air dry. […] Each point represents the average of at least two independent experiments run in triplicate.

Data set [8] deals with A431 cells. As to the kind of experiment: SRB growth inhibition assay in A431 cells. It counts as cell-based, human. The protocol:
All growth inhibitory activities were evaluated using the SRB assay (33). Briefly, following drug treatment, cells were fixed using 50 μL of cold trichloroacetic acid (50%) for 60 min at 4° C., washed five times with tap water, and stained for 30 min at room temperature with SRB (0.4%) dissolved in acetic acid (0.5%). The plates were rinsed five times with 1% acetic acid and allowed to air dry. The resulting colored residue was dissolved in 200 μL of Tris base (10 mM), and the optical density read for each well at 540 nm using a Bio-Rad microplate reader (model 2550). […]
Cell monolayers were continuously exposed to different concentrations of each drug for 72 h. Under short exposure, they were treated with each drug for 2 h and allowed to recover for 72 h in drug-free medium.
To study the reversibility of the antiproliferative effects of our compounds, cells were grown to 70% confluence in 96-well plates and subsequently washed twice with PBS, after which they were exposed to serum-free medium for 18 h. Under continuous exposure, the cells were exposed to different concentrations of each drug for 120 h. Under short exposure, they were exposed to each drug for 2 h, after which they were allowed to recover for 120 h in drug free medium. Growth inhibitory activities were evaluated using the SRB assay as described above.

Data set [9] deals with T3, cytoplasmic domain of the insulin receptor β subunit. To be noted: read-out: IC50 insulin receptor (positive control); cited from earlier work.
The test system of data set [10] is A431 cells. The experiment in a line: Colony forming (clonogenic) assay in A431 cells. Conditions: Homo sapiens, A-431, 144 h, read-out: IC50 colony formation.
Data set [11] is described as follows: Degradation in serum-containing cell culture medium (UV, HPLC). It counts as in vitro ADME. To be noted: bovine, serum-containing cell culture medium (RPMI with 10% serum); RPMI with 10% serum, 37° C.; read-out: half-life (t1/2) by UV spectrophotometry at 340 nm. The protocol: Thereafter, proteins were precipitated by the addition of acetonitrile (3.5 ml) and the supernatant collected by centrifugation. […] The operating mode was isocratic and two solutions, “A” (50% acetonitrile) and “B” (50% water), were used with a 0.5 ml/min flow rate and a 5 μL injection volume. […] For the rapid quantitation of metabolite, a less polar acetonitrile-water (70:30) eluent was used.
The half-life was estimated by a one-phase exponential decay curve-fit method using the GraphPad software package (GraphPad Software, Inc., San Diego, Calif.).
The half-life of BJ2000 under physiological conditions was studied by UV-spectrophotometry. BJ2000 was dissolved in a minimum volume of DMSO, diluted with RPMI-1640 supplemented with 10% FBS, and absorbencies read at 340 nm in a UV cell maintained at 37° C. with a circulating water bath. The half-life was estimated by a one-phase exponential decay curve-fit method, using the GraphPad software package (GraphPad software, Inc., San Diego, Calif., USA).
Proteins were thereafter precipitated by the addition of acetonitrile (3.5 ml), and the supernatant collected by centrifugation. […] HPLC analyses were performed on a Hewlett Packard 1090 liquid chromatograph, using a Waters C4 15-μm 300×3.9-mm reverse phase column to characterize and quantitate the products resulting from the degradation of BJ2000. […] The peaks were detected at 250 nm.

Data set [12] deals with T1, EGFR. As to the kind of experiment: cell-based.
Protocol: The inhibition of receptor autophosphorylation in viable cells was determined by anti-phosphotyrosine Western Blots. A431 cells were pre-incubated overnight for 24 h at 37° C. in a 6-well plate (1×10^6) with 0.1% serum, after which they were exposed to a range of doses for each drug for 2 h and subsequently treated with 50 ng/mL EGF for 30 min at 37° C. The cells were thereafter washed with PBS and re-suspended in cold lysis buffer [50 mM Tris-HCl pH 7.5; 150 mM NaCl; 1% NP40, 1 mM EDTA; 5 mM NaF; 1 mM Na3VO4; protease inhibitor tablet (Roche Biochemicals, Laval, Canada)]. The lysates were kept on ice for 30 min and collected by centrifugation at 10 000 rpm for 20 min at 4° C. The protein concentrations were determined against a standardized control using the Bio-Rad protein assay kit (Bio-Rad Laboratories, Hercules, Calif.). […] Non-specific binding on the PVDF membrane was minimized with a blocking buffer containing nonfat dry milk (3%) in PBS. The membrane was blotted with primary antibodies [either antiphosphotyrosine antibody (UBI, Lake Placid, N.Y.) for the detection of phosphotyrosine, or anti-EGFR (Neomarkers, Fremont, Calif.) for the determination of corresponding receptor levels], and anti-β-tubulin (Neomarkers, Fremont, Calif.) for the detection of equal loading. Thereafter, blots were incubated with HRP-goat anti-mouse antibody (1:200 dilution; Bio-Rad Laboratories, Hercules, Calif.) and the bands visualized with an enhanced chemiluminescence system (Amersham Pharmacia Biotech, Buckinghamshire, UK). Band intensities were measured using the SynGene GeneTools software package (Cambridge, UK).
The inhibition of receptor autophosphorylation in viable cells was determined by anti-phosphotyrosine Western Blots. […] Protein concentrations were determined against a standardized control using the Bio-Rad protein assay kit (Bio-Rad Laboratories, Hercules, Calif.). […] Band intensities were measured using the SynGene GeneTools software package (Cambridge, UK).
Data set [13] relates to NIH3T3 and NIH3T3HER14 cells. As to the kind of experiment: MTT cytotoxicity assay in NIH3T3 / NIH3T3HER14. In kind it is cell-based, mouse. As to the method:
The cytotoxic effects of our compounds were evaluated using the 3-(4,5-dimethylthiazo-2-yl)-2,5-diphenyltetrazolium bromide (MTT) assay (42) with minor modifications. Briefly, cells were grown in 24-well plates and then exposed to the compounds for 96 h. MTT (50μl) of (5 mg/ml in sterile PBS) was added to 500 μl of media and the plates were incubated for 2-3 h at 37° C. […] Each point represents the average of at least two independent experiments run in duplicate.

[14] abbreviates: Homo sapiens, A-431, read-out: IC50 growth inhibition.
[15] abbreviates: Homo sapiens, A-431, 72 h, 72 h continuous exposure, SRB, A431, read-out: IC50 growth inhibition.
Where [16] appears, read: ELISA, PGT substrate, purified EGFR, ATP 20 μM, 8 min, read-out: IC50, inhibition of EGFR TK (competitive binding at ATP site).

T1 sequence (P00533 25-1210): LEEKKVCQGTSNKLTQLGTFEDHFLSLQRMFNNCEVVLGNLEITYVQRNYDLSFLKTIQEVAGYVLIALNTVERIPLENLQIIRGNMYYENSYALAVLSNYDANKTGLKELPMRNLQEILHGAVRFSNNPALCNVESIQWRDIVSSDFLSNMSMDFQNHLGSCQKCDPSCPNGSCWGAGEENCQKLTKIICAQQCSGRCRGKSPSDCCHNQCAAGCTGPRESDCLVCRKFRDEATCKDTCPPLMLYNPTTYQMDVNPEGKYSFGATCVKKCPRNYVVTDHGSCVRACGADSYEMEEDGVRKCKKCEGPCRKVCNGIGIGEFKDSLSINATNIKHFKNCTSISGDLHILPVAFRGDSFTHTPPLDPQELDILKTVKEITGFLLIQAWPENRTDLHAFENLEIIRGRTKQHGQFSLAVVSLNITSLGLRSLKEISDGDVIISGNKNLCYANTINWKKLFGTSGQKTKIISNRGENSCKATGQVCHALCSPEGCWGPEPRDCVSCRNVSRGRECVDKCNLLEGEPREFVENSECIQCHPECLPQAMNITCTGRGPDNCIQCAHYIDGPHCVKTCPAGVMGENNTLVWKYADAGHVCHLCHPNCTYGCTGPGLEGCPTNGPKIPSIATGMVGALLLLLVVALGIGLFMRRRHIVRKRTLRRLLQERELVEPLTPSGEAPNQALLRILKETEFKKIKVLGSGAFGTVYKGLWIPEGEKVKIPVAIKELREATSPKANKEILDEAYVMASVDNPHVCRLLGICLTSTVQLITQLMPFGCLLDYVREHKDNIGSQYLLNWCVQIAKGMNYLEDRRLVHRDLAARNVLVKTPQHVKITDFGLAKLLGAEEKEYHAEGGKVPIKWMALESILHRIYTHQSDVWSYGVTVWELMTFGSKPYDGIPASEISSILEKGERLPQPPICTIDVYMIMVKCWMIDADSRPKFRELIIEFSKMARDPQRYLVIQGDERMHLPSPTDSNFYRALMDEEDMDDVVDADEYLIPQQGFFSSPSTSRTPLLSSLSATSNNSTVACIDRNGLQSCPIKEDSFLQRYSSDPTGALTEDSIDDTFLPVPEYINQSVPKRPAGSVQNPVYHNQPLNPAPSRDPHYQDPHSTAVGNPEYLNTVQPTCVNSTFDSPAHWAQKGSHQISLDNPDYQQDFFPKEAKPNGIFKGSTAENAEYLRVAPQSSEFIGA
T3 sequence (P06213 980-1382 limits assumed): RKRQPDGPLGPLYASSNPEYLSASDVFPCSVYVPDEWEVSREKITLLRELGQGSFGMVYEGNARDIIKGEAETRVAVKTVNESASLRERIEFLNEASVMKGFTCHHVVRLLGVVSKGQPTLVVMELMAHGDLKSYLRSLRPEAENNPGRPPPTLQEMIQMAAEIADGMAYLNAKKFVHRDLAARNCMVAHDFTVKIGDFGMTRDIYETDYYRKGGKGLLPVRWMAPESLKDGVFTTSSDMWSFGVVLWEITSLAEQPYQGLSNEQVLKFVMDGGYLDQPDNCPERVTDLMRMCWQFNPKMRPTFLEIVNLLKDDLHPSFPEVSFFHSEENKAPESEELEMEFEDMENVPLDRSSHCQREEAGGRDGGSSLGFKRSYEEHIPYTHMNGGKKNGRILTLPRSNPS
T2 sequence (P12931 whole entry): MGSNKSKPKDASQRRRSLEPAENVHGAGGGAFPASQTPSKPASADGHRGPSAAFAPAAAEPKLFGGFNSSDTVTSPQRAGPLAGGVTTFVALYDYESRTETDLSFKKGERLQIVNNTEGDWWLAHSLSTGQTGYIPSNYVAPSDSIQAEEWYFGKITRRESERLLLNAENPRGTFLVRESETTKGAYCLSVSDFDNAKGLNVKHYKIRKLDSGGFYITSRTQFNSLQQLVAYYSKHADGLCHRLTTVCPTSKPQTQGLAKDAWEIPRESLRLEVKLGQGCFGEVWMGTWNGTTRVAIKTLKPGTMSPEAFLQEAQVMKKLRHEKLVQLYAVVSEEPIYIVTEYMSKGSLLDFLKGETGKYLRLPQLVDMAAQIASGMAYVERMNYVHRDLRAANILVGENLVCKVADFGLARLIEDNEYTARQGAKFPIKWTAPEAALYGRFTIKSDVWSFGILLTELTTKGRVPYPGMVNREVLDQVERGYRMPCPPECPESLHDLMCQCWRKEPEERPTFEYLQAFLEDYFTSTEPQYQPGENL

With `Cc1cccc(Nc2ncnc3ccc(N(C)C(=O)NCCCl)cc23)c1`, the melting point was 150 to 151 °C (dec.).
As to `O=NN(CCCl)C(=O)NCCCl` [BCNU, bis-chloroethyl-N-nitrosourea, reference compound], in data set [1], the IC50 is 40 µM.
Consider `COCCNN=Nc1ccc2ncnc(Nc3cccc(Br)c3)c2c1` [D R1=MeOCH2CH2—], for which, in data set [2] (Table 1, means and SE's of two separate experiments, read-out: IC50 (μM), inhibition of EGFR tyrosine kinase activity), the IC50 turned out to be 0.071 ± 0.029 µM.
In [2], `COCCNN=Nc1ccc2ncnc(Nc3cccc(C)c3)c2c1` [E R1=MeOCH2CH2—] had an IC50 of 0.196 ± 0.031 µM.
With `Nc1ccc2ncnc(Nc3cccc(Cl)c3)c2c1` [FD105], the “EGF-dependent EGFR autophosphorylation immediately after drug exposure” value in data set [3] is “completely suppressed”. Also, in [4], the “DNA damage (comet tail moment)” value is “non-DNA damaging agent”. Besides, the “effect on c-src TK activity” value in [5] was “did not block c-src TK activity”. For the same compound, the “effect on insulin receptor TK” value in [6] was “nor did it exert any effect on insulin receptor TK”. Moreover, the “concentration giving 100% growth inhibition” value in [7] (EGF or TGFα-induced proliferation) turned out to be 1 µM. For the same compound, the “concentration giving 100% inhibition” value in data set [7] (PDGF-stimulated growth) is given as “approximately 30 μM”. Also, the IC50 in data set [8] (setting [14]) is over 100 µM.
`CNc1ccc2ncnc(Nc3cccc(C)c3)c2c1` [FD110] came in with an IC50 in data set [2] of about 0.05 µM.
As for `Cc1cccc(Nc2ncnc3ccc(N(C)C(=O)N(CCCl)N=O)cc23)c1` [FD137, N-(2-Chloroethyl)-N′-methyl-N′-(4-m-tolylaminoquinazolin-6-yl)-N-nitrosourea], the melting point is 150 to 151 °C (dec.). Besides, the IC50 in data set [1] worked out at 0.8 µM. Also, the “level of DNA lesions compared with BCNU” value in [4] (A431) was “lower levels of DNA lesions than BCNU”. The “DNA damage (comet tail moment)” value in data set [4] was “dose-dependent increase in DNA single strand breaks”. The “fold more potent than BCNU” value in [8] is listed as 50 fold.
As to `CC(=O)OCOC(c1ccc2ccccc2c1)P(=O)(OCOC(C)=O)OCOC(C)=O` (centres unmarked) [HNPMA-(AM)3], the IC50 in [9] is 100 µM.
On to `CNN=Nc1ccc2ncnc(Nc3cccc(C)c3)c2c1` [SMA41], for which the “concentration range with significant comet tail moment / DNA damage” value in data set [4] (A431, 30 min and 2 h exposure) was 6 to 25 µM and 6.25 to 25 µM. In addition, the “DNA damage (comet tail moment)” value in [4] is recorded as “capable of inducing DNA damage in a dose-dependent manner”. In addition, the “concentration range with nuclear condensation” value in data set [4] (A431, 2 h) was 25 to 100 µM. Moreover, the IC50 in [10] was 4 µM; in data set [8] (72 h continuous exposure, SRB, A431, read-out: IC50 growth inhibition), about 30 µM; in data set [8] (Homo sapiens, A-431, 2 h exposure then 72 h recovery in drug-free medium, SRB, A431, read-out: IC50 growth inhibition) it was 36 µM; in data set [8] (setting [15]), 36 µM. In addition, the half-life in data set [11] was about 30 min.
As to `Cc1cccc(Nc2ncnc3ccc(N)cc23)c1` [SMA52, 6-amino-4-[(m-tolyl)amino]quinazoline], the IC50 was 8.44 µM in [12]; 1.02 µM in data set [2]; 1 µM in [2] (setting [16]); 3.7 µM in data set [10]; 59 µM in data set [8] (Homo sapiens, A-431, 72 h, read-out: IC50 growth inhibition); over 100 µM in [8] (setting [14]). The “DNA damage (comet tail moment)” value in data set [4] is “does not possess DNA damaging properties”.
Take `Cn1nnc2c(C(N)=O)ncn2c1=O` [TEM, temozolomide, reference compound]: in data set [13], the “fold greater cytotoxic activity in EGFR transfectant NIH3T3HER14 than in parental NIH3T3” value was “no differential cytotoxicity”. The IC50 was over 100 µM in data set [12], over 100 µM in data set [2] (setting [16]) and 366 µM in data set [8] (setting [15]). Moreover, the “antiproliferative activity under short and continuous exposure” value in data set [8] (2 h + 72 h recovery and 72 h continuous, A431) was “inactive”.
